Results as given in patent US7629294B2, “Pyrazolopyrimidines” (Bayer CropScience LP, priority 2004, dated 2009).

Experiment: physchem
Conditions: logP

Row | Compound | chromatographic logP
1 | CC(C)[C@@H](C)Nc1c(-c2ccc(C#N)cc2Cl)c(Cl)nc2c(C(=O)O)cnn12 (single isomer, unassigned) [Example XIX] | 2.9
2 | C[C@@H](Nc1c(-c2ccc(F)cc2Cl)c(Cl)nc2c(C3=NOCCO3)cnn12)C(C)(C)C [Example VIII] | 4.43
3 | CCC(C)c1c(Cl)nc2c(C(=O)O)cnn2c1N[C@@H](C)C(C)C (stereo partly drawn) [Example XIV, 5-chloro-6-(sec-butyl)-7-[(S)-3-methyl-2-butylamino]pyrazolo[1,5-a]pyrimidine-3-carboxylic acid] | 3.52
4 | CC(C)[C@H](C)Nc1c(C2CCCC2)c(Cl)nc2c(C(=O)O)cnn12 [Example XVI] | 3.7
5 | C[C@@H](Nc1c(-c2ccc(F)cc2Cl)c(Cl)nc2c(C(=O)NO)cnn12)C(C)(C)C | 3.51
6 | C[C@@H](Nc1c(-c2ccc(F)cc2Cl)c(Cl)nc2c(-c3ncco3)cnn12)C(C)(C)C [Example VII] | 4.72
7 | CC(C)[C@@H](C)Nc1c(-c2ccc(C(N)=O)cc2Cl)c(Cl)nc2c(C(=O)O)cnn12 (single isomer, unassigned) [Example XX] | 1.96
8 | C[C@@H](Nc1c(-c2ccc(F)cc2Cl)c(Cl)nc2c(C(N)=O)cnn12)C(C)(C)C | 3.88
9 | C[C@H](Nc1c(C2CCCC2)c(Cl)nc2c(C(=O)O)cnn12)C(F)(F)F [Example XVII, 5-chloro-6-cyclopentyl-7-[(S)-3-trifluoroisopropylamino]pyrazolo[1,5-a]pyrimidine-3-carboxylic acid] | 3.06
10 | C[C@@H](Nc1c(-c2ccc(F)cc2Cl)c(Cl)nc2c(C3=NOCCN3)cnn12)C(C)(C)C [Example IX] | 3.23
11 | CC(C)[C@@H](C)Nc1c(C2CCCC2)c(Cl)nc2c(C(=O)O)cnn12 [Example XV, 5-chloro-6-cyclopentyl-7-[(R)-3-methyl-2-butylamino]pyrazolo[1,5-a]pyrimidine-3-carboxylic acid] | 3.7
12 | N#Cc1ccc(Br)c(Cl)c1 [3-chloro-4-bromobenzonitrile] | 2.82
13 | C[C@@H](Nc1c(-c2ccc(F)cc2Cl)c(Cl)nc2c(C(N)=NO)cnn12)C(C)(C)C | 2.47
14 | CCC(C)c1c(Cl)nc2c(C(=O)O)cnn2c1N[C@@H](C)C(F)(F)F (stereo partly drawn) [Example XII, 5-chloro-6-(sec-butyl)-7-[(S)-3-trifluoroisopropylamino]pyrazolo[1,5-a]pyrimidine-3-carboxylic acid] | 2.88
15 | CC(Nc1c(-c2ccc(F)cc2Cl)c(Cl)nc2c(Br)cnn12)C(C)(C)C (stereo not shown) [3-bromo-5-chloro-6-(2-chloro-4-fluorophenyl)-N-(1,2,2-trimethylpropyl)pyrazolo[1,5-a]pyrimidin-7-amine] | 5.78
16 | C[C@H](Nc1c(-c2ccc(C#N)cc2Cl)c(Cl)nc2c(C(=O)O)cnn12)C(F)(F)F (single isomer, unassigned) [Example XXII] | 2.63
17 | C[C@@H](Nc1c(-c2ccc(F)cc2Cl)c(Cl)nc2c(-c3nsc(=O)o3)cnn12)C(C)(C)C [Example VI] | 5.38

The remaining lines, values ahead:

Row | chromatographic logP | Compound
18 | 3.32 | COC(=O)c1cnn2c(N[C@@H](C)C(F)(F)F)c(-c3ccc(C#N)cc3Cl)c(Cl)nc12 (single isomer, unassigned) [drawing 54 atropisomer A]
19 | 4.49 | CCC(C)c1c(Cl)nc2c(C(=O)OC)cnn2c1N[C@@H](C)C(C)C (stereo partly drawn) [methyl 5-chloro-6-(sec-butyl)-7-[(S)-3-methyl-2-butylamino]pyrazolo[1,5-a]pyrimidine-3-carboxylate]
20 | 3.31 | COC(=O)c1cnn2c(Cl)c(C3CCCC3)c(Cl)nc12 [methyl 5,7-dichloro-6-cyclopentylpyrazolo[1,5-a]pyrimidine-3-carboxylate]
21 | 3.13 | CCC(C)c1c(Cl)nc2c(C(=O)OC)cnn2c1Cl (stereo not shown) [methyl 5,7-dichloro-6-(sec-butyl)-pyrazolo[1,5-a]pyrimidine-3-carboxylate]
22 | 3.54 | CC(C)C(C)Nc1c(-c2ccc(F)cc2Cl)c(Cl)nc2c(-c3ccccn3)cnn12 (stereo not shown) [compound 538]
23 | 3.64 | COC(=O)c1cnn2c(N[C@H](C)C(C)C)c(-c3ccc(C#N)cc3Cl)c(Cl)nc12 (single isomer, unassigned) [drawing 52 atropisomer A]
24 | 3.89 | COC(=O)c1cnn2c(N[C@@H](C)C(F)(F)F)c(C3CCCC3)c(Cl)nc12 [methyl 5-chloro-6-cyclopentyl-7-[(S)-3-trifluoroisopropylamino]pyrazolo[1,5-a]pyrimidine-3-carboxylate]
25 | 2.34 | COC(=O)C(C(=O)OC)c1ccc(C#N)cc1Cl [dimethyl(2-chloro-4-cyanophenyl)malonate]
26 | 4.72 | COC(=O)c1cnn2c(N[C@@H](C)C(C)C)c(C3CCCC3)c(Cl)nc12 [methyl 5-chloro-6-cyclopentyl-7-[(S)-3-methyl-2-butylamino]pyrazolo[1,5-a]pyrimidine-3-carboxylate]
27 | 3.72 | COC(=O)c1cnn2c(N[C@@H](C)C(C)C)c(-c3ccc(C#N)cc3Cl)c(Cl)nc12 (single isomer, unassigned) [drawing 53 atropisomer A]
28 | 3.76 | CCC(C)c1c(Cl)nc2c(C(=O)OC)cnn2c1N[C@@H](C)C(F)(F)F (stereo partly drawn) [methyl 5-chloro-6-(sec-butyl)-7-[(S)-3-trifluoroisopropylamino]pyrazolo[1,5-a]pyrimidine-3-carboxylate]
29 | 4.49 | CCC(C)c1c(Cl)nc2c(C(=O)OC)cnn2c1N[C@H](C)C(C)C (stereo partly drawn) [methyl 5-chloro-6-(sec-butyl)-7-[(R)-3-methyl-2-butylamino][1,5-a]pyrimidine-3-carboxylate]

Same assay, conditions: logPs

Row | Compound | chromatographic logP
30 | Cc1ccsc1-c1c(Cl)nc2c(-c3nsc(=O)o3)cnn2c1NC(C)C(C)C (stereo not drawn) [Example XXVI, 5-[5-Chloro-7-(1,2-dimethylpropylamino)-6-(3-methylthiophen-2-yl)pyrazolo[1,5-α]pyrimidin-3-yl]-[1,3,4]oxathiazol-2-one] | 5
31 | Oc1nc2c(-c3ccccn3)cnn2c(O)c1-c1ccc(F)cc1Cl [Example XXXII, 6-(2-chloro-4-fluorophenyl)-3-pyridin-2-ylpyrazolo[1,5-a]pyrimidine-5,7-diol] | 0.91
32 | CC(C)C(C)Nc1c(-c2ccc(F)cc2Cl)c(Cl)nc2c(-c3nnc(N)s3)cnn12 (stereo not shown) [Example XXIX] | 3.57
33 | Cc1ccsc1-c1c(Cl)nc2c(C(N)=O)cnn2c1NC(C)C(C)C (stereo not drawn) [5-chloro-7-(1,2-dimethylpropylamino)-6-(3-methylthiophen-2-yl)pyrazolo[1,5-α]pyrimidine-3-carboxamide] | 3.5
34 | CC1CCN(c2c(-c3ccc(F)cc3Cl)c(Cl)nc3c(S(C)(=O)=O)cnn23)CC1 [Example II, 5-chloro-6-(2-chloro-4-fluorophenyl)-7-(4-methylpiperidin-1-yl)-3-methylsulphonyl-pyrazolo[2,3-a]pyrimidine] | 4.2
35 | Cc1nnc(-c2cnn3c(O)c(-c4ccc(F)cc4Cl)c(O)nc23)o1 [Example XXX, 6-(2-Chloro-4-fluorophenyl)-3-(5-methyl-[1,3,4]oxadiazol-2-yl)pyrazolo[1,5-a]pyrimidine-5,7-diol] | 0.67
36 | Cc1nnc(-c2cnn3c(O)c(-c4ccc(F)cc4Cl)c(O)nc23)[nH]1 [Example XXXI, 6-(2-chloro-4-fluorophenyl)-3-(5-methyl-[1,3,4]triazol-2-yl)pyrazolo[1,5-a]pyrimidine-5,7-diol] | 0.51
37 | CSc1cnn2c(N3CCC(C)CC3)c(-c3ccc(F)cc3Cl)c(Cl)nc12 [Example I, 5-chloro-6-(2-chloro-4-fluorophenyl)-7-(4-methylpiperidin-1-yl)-3-methylmercapto-pyrazolo [2,3-a]pyrimidine] | 5.73
38 | CC1CCN(c2c(-c3ccc(F)cc3Cl)c(Cl)nc3c(S(=O)(=O)O)cnn23)CC1 [Example III, 5-chloro-6-(2-chloro-4-fluorophenyl)-7-(4-methylpiperidin-1-yl)pyrazolo[2,3-a]pyrimidine-3-sulphonic acid] | 2.48
39 | CC(C)[C@@H](C)Nc1c(-c2c(F)cccc2Cl)c(Cl)nc2c(C(=O)O)cnn12 [Example V, 5-chloro-6-(2-chloro-6-fluorophenyl)-7-{[(1R)-1,2-dimethylpropyl]amino}pyrazolo[1,5-a]pyrimidine-3-carboxylic acid] | 3.24
40 | Cc1nnc(-c2cnn3c(NC(C)C(C)C)c(-c4ccc(F)cc4Cl)c(Cl)nc23)o1 (stereo not shown) [Example XXXVI] | 3.94
41 | Cc1ccsc1-c1c(Cl)nc2c(-c3ncco3)cnn2c1NC(C)C(C)C (stereo not drawn) [Example XXVII, [5-Chloro-6-(3-methylthiophen-2-yl)-3-oxazol-2-ylpyrazolo[1,5-α]pyrimidin-7-yl](1,2-dimethyl-propyl)amine] | 4.3

Continued, values first:

Row | chromatographic logP | Compound
42 | 3.54 | CC(C)C(C)Nc1c(-c2ccc(F)cc2Cl)c(Cl)nc2c(-c3ccccn3)cnn12 (stereo not shown) [XXXVIII, [5-chloro-6-(2-chloro-4-fluorophenyl)-3-pyridin-2-ylpyrazolo[1,5-a]pyrimidin-7-yl](1,2-dimethylpropyl)amine]
43 | 4.09 | CNS(=O)(=O)c1cnn2c(NC(C)C(C)(C)C)c(-c3ccc(F)cc3Cl)c(Cl)nc12 (stereo not shown) [N-methyl-5-chloro-6-(2-chloro-4-fluorophenyl)-7-(1,2,2-trimethylpropylamino)pyrazolo[1,5-a]pyrimidine-3-sulphonamide]
44 | 0.55 | COC(=O)c1cnn2c(O)c(-c3c(F)cccc3Cl)c(O)nc12 [methyl 6-(2-chloro-6-fluorophenyl)-5,7-dihydroxypyrazolo[1,5-a]pyrimidine-3-carboxylate]
45 | 4.6 | COC(=O)c1cnn2c(NC(C)C(C)C)c(-c3sccc3C)c(OC)nc12 (stereo not shown) [methyl 7-(1,2-dimethylpropylamino)-5-methoxy-6-(3-methylthiophen-2-yl)pyrazolo[1,5-a]-pyrimidine-3-carboxylate]
46 | 4.12 | COC(=O)c1cnn2c(N[C@H](C)C(C)C)c(-c3c(F)cccc3Cl)c(Cl)nc12 [methyl 5-chloro-6-(2-chloro-6-fluorophenyl)-7-{[(1R)-1,2-dimethylpropyl]amino}pyrazolo[1,5-a]pyrimidine-3-carboxylate]
